# Experimental data reported in US20250262186A1 (SANOFI, priority 2022, published 2025).
# Where a name gives a salt, the structure may show the parent alone.
# Target: T1, ERα (Homo sapiens, UniProt P03372)
# T1 construct: made using a breast cancer cell ERα in cell western assay; host or cells: MCF7
# T1 sequence (P03372 1-595): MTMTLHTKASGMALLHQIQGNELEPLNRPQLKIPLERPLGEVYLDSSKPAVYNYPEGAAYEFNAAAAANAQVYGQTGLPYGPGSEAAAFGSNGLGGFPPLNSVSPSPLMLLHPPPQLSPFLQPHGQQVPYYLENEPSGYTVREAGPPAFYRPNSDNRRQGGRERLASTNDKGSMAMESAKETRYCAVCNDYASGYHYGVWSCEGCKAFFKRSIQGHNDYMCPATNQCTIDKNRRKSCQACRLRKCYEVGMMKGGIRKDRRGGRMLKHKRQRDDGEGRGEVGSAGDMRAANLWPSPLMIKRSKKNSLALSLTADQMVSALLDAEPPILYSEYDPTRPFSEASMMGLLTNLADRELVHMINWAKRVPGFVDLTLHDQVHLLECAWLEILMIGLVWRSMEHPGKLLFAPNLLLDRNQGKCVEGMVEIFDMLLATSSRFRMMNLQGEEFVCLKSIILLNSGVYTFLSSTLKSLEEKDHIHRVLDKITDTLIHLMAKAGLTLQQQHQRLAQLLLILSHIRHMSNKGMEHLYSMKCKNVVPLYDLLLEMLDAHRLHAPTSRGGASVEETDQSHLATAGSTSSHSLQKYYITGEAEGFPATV
# Test: Estrogen receptor degradation activity: breast cancer cell ERα in cell western assay in MCF7 cells
# Type: cell-based
# Settings: 0.3 μM, 4 hours, relative to fulvestrant 0.1 μM positive control
# Method: Said test involves measuring the in vitro degradation activity of the compounds of the Table 1a.
# The measurements of the degradation activities were made using a breast cancer cell ERα in cell western assay as described hereunder.
# MCF7 cells (ATCC) were seeded in 384 wells microplate (collagen coated) at a concentration of 10000 cells/30 μL per well in red phenol free MEM alpha medium (invitrogen) containing 5% charcoal dextran striped FBS. The following day, 9 points serial 1:5 dilution of each compound was added to the cells in 2.5 μL at final concentrations ranging from 0.3-0.0000018 μM (in table 2), or 0.1 μM for fulvestrant (using as positive control). At 4 hours post compound addition the cells were fixed by adding 25 μL of formalin (final concentration 5% formalin containing 0.1% triton) for 10 minutes at room temperature and then washed twice with PBS. Then, 50 μL of LI-COR blocking buffer containing 0.1% Triton was added to plate for 30 minutes at room temperature. LI-COR blocking buffer was removed and cells were incubated overnight at cold room with 50 μL anti-ER rabbit monoclonal antibody (Thermo scientific MA1-39540) diluted at 1:1000 in LI-COR blocking buffer containing 0.1% tween-20. Wells which were treated with blocking buffer but no antibody were used as background control. Wells were washed twice with PBS (0.1% tween-20) and incubated at 37° C. for 60 minutes in LI-COR (0.1% tween-20) containing goat anti-rabbit antibody Alexa 488 (1:1000) and Syto-64 a DNA dye (2 μM final concentration). Cells were then washed 3 times in PBS and scanned in ACUMEN explorer (TTP-Labtech). Integrated intensities in the green fluorescence and red fluorescence were measured to determine the levels of ERα and DNA respectively.
# The degradation activity with respect to estrogen receptors in this test is given by the concentration which degrades 50% of the estrogen receptor (or IC50) in nM.
# The % of ERα levels decrease were determined as follows: % inhibition=100*(1−(sample−fulvestrant: DMSO−fulvestrant)).
row,% Degradation At 0.3 μM,SMILES
1,79%,"Cl.O=C(O)c1ccc2c(c1)CCCC(c1ccc(Cl)cc1Cl)=C2c1cccc(N[C@@H]2CCN(CCCF)C2)c1 [Compound 33, (R)-8-(2,4-dichlorophenyl)-9-(3-((1-(3-fluoropropyl)pyrrolidin-3-yl)amino)phenyl)-6,7-dihydro-5H-benzo[7]annulene-3-carboxylic acid hydrochloride]"
2,65%,"Cl.O=C(O)c1ccc2c(c1)OCCC(c1ccc(Cl)cc1Cl)=C2c1cccc(O[C@@H]2CCN(CCCF)C2)c1 [Compound 35, (R)-4-(2,4-dichlorophenyl)-5-(3-((1-(3-fluoropropyl)pyrrolidin-3-yl)oxy)phenyl)-2,3-dihydrobenzo[b]oxepine-8-carboxylic acid hydrochloride]"
3,66%,"FCCCN1CC[C@@H](Oc2cccc(C3=C(c4ccc(Cl)cc4Cl)CCCc4ccccc43)c2)C1 [Compound 38, (R)-3-(3-(8-(2,4-dichlorophenyl)-6,7-dihydro-5H-benzo[7]annulen-9-yl)phenoxy)-1-(3-fluoropropyl)pyrrolidine]"
4,78%,"FCCCN1CC[C@@H](Oc2cccc(C3=C(c4ccccc4Cl)CCCc4ccccc43)c2)C1 [Compound 39, (R)-3-(3-(8-(2-chlorophenyl)-6,7-dihydro-5H-benzo[7]annulen-9-yl)phenoxy)-1-(3-fluoropropyl)pyrrolidine]"
5,88%,"Cl.O=C(O)c1ccc2c(c1)CCC(c1ccc(Cl)cc1Cl)=C2c1cccc(O[C@@H]2CCN(CCCF)C2)c1 [Compound 40, (R)-6-(2,4-dichlorophenyl)-5-(3-((1-(3-fluoropropyl)pyrrolidin-3-yl)oxy)phenyl)-7,8-dihydronaphthalene-2-carboxylic acid hydrochloride]"
6,75%,"Oc1ccc2c(c1)SCCC(c1ccc(Cl)cc1Cl)=C2c1cccc(O[C@@H]2CCN(CCCF)C2)c1 [Compound 41, (R)-4-(2,4-dichlorophenyl)-5-(3-((1-(3-fluoropropyl)pyrrolidin-3-yl)oxy)phenyl)-2,3-dihydrobenzo[b]thiepin-8-ol]"

# The remaining lines, values behind:
row,SMILES,% Degradation At 0.3 μM
1,"Cl.O=C(O)c1ccc2c(c1)CCCC(c1ccc(Cl)cc1Cl)=C2c1cccc(O[C@@H]2CCN(CCCF)C2)c1F [Compound 21, (R)-8-(2,4-dichlorophenyl)-9-(2-fluoro-3-((1-(3-fluoropropyl)pyrrolidin-3-yl)oxy)phenyl)-6,7-dihydro-5H-benzo[7]annulene-3-carboxylic acid, hydrochloride]",85%
2,"Cc1ccc(O[C@@H]2CCN(CCCF)C2)cc1C1=C(c2ccccc2Cl)CCCc2cc(C(=O)O)ccc21 [Compound 23, (R)-8-(2-chlorophenyl)-9-(5-((1-(3-fluoropropyl)pyrrolidin-3-yl)oxy)-2-methylphenyl)-6,7-dihydro-5H-benzo[7]annulene-3-carboxylic acid]",84%
3,Cc1ccc(O[C@@H]2CCN(CCCF)C2)cc1C1=C(c2ccc(Cl)cc2Cl)CCCc2cc(C(=O)O)ccc21 [Compound 24],61%
4,"Cl.O=C(O)c1ccc2c(c1)CCCC(c1ccccc1)=C2c1cc(O[C@@H]2CCN(CCCF)C2)ccc1F [Compound 25, (R)-9-(2-fluoro-5-((1-(3-fluoropropyl)pyrrolidin-3-yl)oxy)phenyl)-8-phenyl-6,7-dihydro-5H-benzo[7]annulene-3-carboxylic acid, hydrochloride]",77%
5,"O=C(O)c1ccc2c(c1)CCCC(c1ccccc1Cl)=C2c1cc(O[C@@H]2CCN(CCCF)C2)ccc1F [Compound 26, (R)-8-(2-chlorophenyl)-9-(2-fluoro-5-((1-(3-fluoropropyl)pyrrolidin-3-yl)oxy)phenyl)-6,7-dihydro-5H-benzo[7]annulene-3-carboxylic acid, hydrochloride]",90%
6,"Cl.O=C(O)c1ccc2c(c1)CCCC(c1ccc(Cl)cc1Cl)=C2c1cc(O[C@@H]2CCN(CCCF)C2)ccc1F [Compound 27, (R)-8-(2,4-dichlorophenyl)-9-(2-fluoro-5-((1-(3-fluoropropyl)pyrrolidin-3-yl)oxy)phenyl)-6,7-dihydro-5H-benzo[7]annulene-3-carboxylic acid hydrochloride]",89%
7,"Cl.O=C(O)c1ccc2c(c1)CCCC(c1ccccc1Cl)=C2c1cccc(OC2CN(CCCF)C2)c1 [Compound 29, 8-(2-chlorophenyl)-9-(3-((1-(3-fluoropropyl)azetidin-3-yl)oxy)phenyl)-6,7-dihydro-5H-benzo[7]annulene-3-carboxylic acid hydrochloride]",57%
8,"Cl.O=C(O)c1ccc2c(c1)CCCC(c1ccc(Cl)cc1Cl)=C2c1cccc(OC2CN(CCCF)C2)c1 [Compound 30, 8-(2,4-dichlorophenyl)-9-(3-((1-(3-fluoropropyl)azetidin-3-yl)oxy)phenyl)-6,7-dihydro-5H-benzo[7]annulene-3-carboxylic acid hydrochloride]",55%
9,"O=C(O)c1ccc2c(c1)CCCC(c1ccc(Cl)cc1Cl)=C2c1cccc(CC2CN(CCCF)C2)c1 [Compound 31, 8-(2,4-dichlorophenyl)-9-(3-((1-(3-fluoropropyl)azetidin-3-yl)methyl)phenyl)-6,7-dihydro-5H-benzo[7]annulene-3-carboxylic acid]",58%
10,"O=C(O)c1ccc2c(c1)CCCC(c1ccc(Cl)cc1Cl)=C2c1cccc(NC2CN(CCCF)C2)c1 [Compound 32, 8-(2,4-dichlorophenyl)-9-(3-((1-(3-fluoropropyl)azetidin-3-yl)amino)phenyl)-6,7-dihydro-5H-benzo[7]annulene-3-carboxylic acid]",70%
